# Measurements: patent publication US5284853A, “Angiotensin II receptor blocking 2,3,6 substituted quinazolinones” (American Cyanamid Company, priority 1993, dated 1994)
# Values joined by “and” are separate entries in the source; they are usually repeats but may differ in a detail not shown here. Equal entries are not always repeated.
# How the values were obtained:
# Angiotensin II Receptor = target: T1, Angiotensin II Receptor (Bos taurus, UniProt P25104); experiment: Receptor binding assay: competition of [^125 I](Sar^1,Ile^8)AngII binding to beef adrenal cortex microsomal membranes; conditions: 60 min, room temperature, pH 7.4
# T1 construct: The brownish tissue forming the adrenal cortex is scraped off and finely minced with scissors before homogenization; tissue local slaughter house (Maxwell-Cohen); host or cells: beef adrenal cortex, microsomal membranes (100,000×g pellet)
# T1 sequence (P25104 1-359): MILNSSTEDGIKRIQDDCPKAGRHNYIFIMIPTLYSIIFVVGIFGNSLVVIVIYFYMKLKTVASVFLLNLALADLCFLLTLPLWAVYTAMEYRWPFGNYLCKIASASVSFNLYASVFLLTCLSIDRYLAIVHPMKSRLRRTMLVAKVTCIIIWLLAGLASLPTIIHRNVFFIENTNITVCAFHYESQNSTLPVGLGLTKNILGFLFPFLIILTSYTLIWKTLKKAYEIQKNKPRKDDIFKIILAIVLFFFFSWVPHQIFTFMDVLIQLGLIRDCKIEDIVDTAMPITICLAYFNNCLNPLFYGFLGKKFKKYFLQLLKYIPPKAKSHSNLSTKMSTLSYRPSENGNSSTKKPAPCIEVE
# From the text: Beef adrenals are obtained from a local slaughter house (Maxwell-Cohen). [^125 […]. 2200 Ci/mmole, is purchased from Dupont (KEN@, Boston, Mass.). All unlabeled AngII analogs, Dimethylsulfoxide (DMSO), nucleotides, bovine serum albumin (BBA) are purchased from Sigma Chemical Co., St. Louis, MO U.S.A. Approximately sixteen (16) to twenty (20) beef adrenal glands are processed as follows: fresh adrenal glands received on crushed ice are cleaned of fatty tissues and the tough membranes encapsulating the glands are removed and discarded. The brownish tissue forming the adrenal cortex is scraped off and finely minced with scissors before homogenization care is taken to avoid contamination with medullary tissue during dissection. […] Unless otherwise indicated, all subsequent operations are done at […]. […] The homogenate is centrifuged first at low speed (3,000×g) for 10 min. […] This P2 pellet is discarded and the liquid phase is carefully decanted off in clean centrifuge tubes and recentrifuged at high speed (100,000×g) for 60 min. The translucent final pellet is harvested and combined in a small volume (20-50.0 ml) of […] Tris.HCl buffer, pH 7.2. A 100 ul aliquot is withdrawn and the protein content of the preparation is determined by the Lowry's method (Lowry, O. H., Rosebrough, N. P., Parr, A. L. and Randall, R. J., Protein measurement with Folin phenol reagent. J. Biol. Chem., […], 265-275, 1951). The pelleted membrane is reconstituted in 50.0 mM Tris.HCl buffer containing 0.1 mM of phenylmethylsulfonyl fluoride (PMSF) to give approximately a protein concentration of 2.5 mg per ml of tissue suspension. […] In competition studies, experimental compounds are diluted in dimethylsulfoxide (DMSO) and added in 20 ul to wells before the introduction of tissue membranes. This concentration of DMSO is found to have no negative effects on the binding of [^125 I] ([…] to the membranes. Assays are performed in triplicate. The wells are left undisturbed for 60 min. at room temperature. Following incubation, all wells are harvested at once with a Brandel® Harvester especially designed for a 96 well plate (Brandel® Biomedical Research & Development Labs. Inc., Gaithersburg, MD, U.S.A.). The filter discs are washed with 10×1.0 ml of cold 0.9% NaCl to remove unbound ligand. Presoaking the filter sheet in 0.1% polyethyleneimine in normal saline (PEI/Saline) greatly reduces the radioactivity retained by the filter blanks. This method is routinely used. The filters are removed from the filter grid and counted in a Parkard® Cobra Gamma Counter for 1 min. (Packard Instrument Co., Downers Grove, Ill, U.S.A.). The binding data are analyzed by the non-linear interactive "LUNDON-11" program (LUNDON SOFTWARE Inc., Cleveland, OH U.S.A.).
# [1] = tested on: Angiotensin II (AII) vasopressor response; experiment: AII Challenge: antagonism of the angiotensin II vasopressor response in conscious SHR; type: in vivo, Spontaneously hypertensive rats (Male okamoto-Aoki SHR); conditions: 5 mg/kg I.V.; for Average Change / Inhibition: n = 2; for Change / Control Before AII / Response After AII: per rat
# From the text: […] Conscious Male okamoto-Aoki SHR, 16-20 weeks old, weighing approximately 330 g are purchased from Charles River Labs (Wilmington, MA). Conscious rats are restrained in a supine position with elastic tape. The area at the base of the tail is locally anesthetized by subcutaneous infiltration with 2% procaine. […] The cannula is secured, heparinized (1,000 I.U./ml), sealed and the wound is closed. The animals are placed in plastic restraining cages in an upright position. The cannula is attached to a Statham P23Db pressure transducer, and pulsatile blood pressure is recorded to 10-15 minutes with a Gould Brush recorder. (Chan et al., (Drug Development Res., 18:75-94, 1989). […] Co., St. […] […] […] […] […] A compound is considered active if at 30 mg/kg i.v. it antagonized at least 50% of the response.
# [2] = AII 0.05 mcg/kg IV, 30 min post dose
# [3] = AII 0.05 mcg/kg IV, 60 min post dose
# [4] = AII 0.05 mcg/kg IV, 90 min post dose
# [5] = AII 0.05 mcg/kg IV, 180 min post dose
# [6] = AII 0.1 mcg/kg IV, 30 min post dose
# [7] = AII 0.1 mcg/kg IV, 60 min post dose
# [8] = AII 0.1 mcg/kg IV, 90 min post dose
# [9] = AII 0.1 mcg/kg IV, 120 min post dose
# [10] = AII 0.1 mcg/kg IV, 180 min post dose
# [11] = AII 0.5 mcg/kg IV, 120 min post dose
smiles,measurement,setting,value
CCCCc1nc2ccc(C3CC(c4ccc(C)s4)=NO3)cc2c(=O)n1Cc1ccc(-c2ccccc2-c2nnn[nH]2)cc1 (stereo not shown) [Example 21],IC50,Angiotensin II Receptor,330 nM
same,Average Change,[1]; [2],13.5 mmhg
same,Inhibition,[1]; [2],72%
same,Change,[1]; [2],17 mmhg and 10 mmhg
same,Control Before AII,[1]; [2],188 mmhg and 180 mmhg
same,Response After AII,[1]; [2],205 mmhg and 190 mmhg
same,Average Change,[1]; [3],25 mmhg
same,Inhibition,[1]; [3],47%
same,Change,[1]; [3],35 mmhg and 15 mmhg
same,Control Before AII,[1]; [3],175 mmhg
same,Response After AII,[1]; [3],210 mmhg and 190 mmhg
same,Average Change,[1]; [4],24 mmhg
same,Inhibition,[1]; [4],49%
same,Change,[1]; [4],25 mmhg and 23 mmhg
same,Control Before AII,[1]; [4],170 mmhg and 157 mmhg
same,Response After AII,[1]; [4],195 mmhg and 180 mmhg
same,Average Change,[1]; [5],30 mmhg
same,Inhibition,[1]; [5],37%
same,Change,[1]; [5],40 mmhg and 20 mmhg
same,Control Before AII,[1]; [5],170 mmhg and 160 mmhg
same,Response After AII,[1]; [5],210 mmhg and 180 mmhg
same,Average Change,[1]; [6],27.5 mmhg
same,Inhibition,[1]; [6],41%
same,Change,[1]; [6],30 mmhg and 25 mmhg
same,Control Before AII,[1]; [6],180 mmhg and 175 mmhg
same,Response After AII,[1]; [6],210 mmhg and 200 mmhg
same,Average Change,[1]; [7],34 mmhg
same,Inhibition,[1]; [7],28%
same,Change,[1]; [7],38 mmhg and 30 mmhg
same,Control Before AII,[1]; [7],175 mmhg and 165 mmhg
same,Response After AII,[1]; [7],213 mmhg and 195 mmhg
same,Average Change,[1]; [8],31 mmhg
same,Inhibition,[1]; [8],34%
same,Change,[1]; [8],40 mmhg and 22 mmhg
same,Control Before AII,[1]; [8],175 mmhg and 163 mmhg
same,Response After AII,[1]; [8],215 mmhg and 185 mmhg
same,Average Change,[1]; [9],31.5 mmhg
same,Inhibition,[1]; [9],33%
same,Change,[1]; [9],40 mmhg and 23 mmhg
same,Control Before AII,[1]; [9],175 mmhg and 160 mmhg
same,Response After AII,[1]; [9],215 mmhg and 183 mmhg
same,Average Change,[1]; [10],40 mmhg
same,Inhibition,[1]; [10],15%
same,Change,[1]; [10],50 mmhg and 30 mmhg
same,Control Before AII,[1]; [10],175 mmhg and 160 mmhg
same,Response After AII,[1]; [10],225 mmhg and 190 mmhg
same,Average Change,[1]; [11],27.5 mmhg
same,Inhibition,[1]; [11],42%
same,Change,[1]; [11],35 mmhg and 20 mmhg
same,Control Before AII,[1]; [11],185 mmhg and 160 mmhg
same,Response After AII,[1]; [11],220 mmhg and 180 mmhg
"CCCCc1nc2ccc(C3CC(c4ccc(C)cc4)=NO3)cc2c(=O)n1Cc1ccc(-c2ccccc2-c2nnn[nH]2)cc1 (stereo not shown) [Example 23, 2-Butyl-6-[4,5-dihydro-3-(4-methylphenyl)-5-isoxazolyl]-3-[[2'-(lH-tetrazol-5-yl)[1,1'-biphenyl]-4-yl]methyl]-4(3H)-quinazolinone]",IC50,Angiotensin II Receptor,70 nM
